From ChEMBL document CHEMBL1149969, “Conformationally restricted inhibitors of the high affinity -glutamate transporter” (Bioorg Med Chem Lett, 1993)

B1: Excitatory amino acid transporter 2 (Rattus norvegicus), P31596 (protein)
chain: MASTEGANNMPKQVEVRMHDSHLSSEEPKHRNLGMRMCDKLGKNLLLSLTVFGVILGAVCGGLLRLAAPIHPDVVMLIAFPGDILMRMLKMLILPLIISSLITGLSGLDAKASGRLGTRAMVYYMSTTIIAAVLGVILVLAIHPGNPKLKKQLGPGKKNDEVSSLDAFLDLIRNLFPENLVQACFQQIQTVTKKVLVAPPSEEANTTKAVISLLNETMNEAPEETKIVIKKGLEFKDGMNVLGLIGFFIAFGIAMGKMGEQAKLMVEFFNILNEIVMKLVIMIMWYSPLGIACLICGKIIAIKDLEVVARQLGMYMITVIVGLIIHGGIFLPLIYFVVTRKNPFSFFAGIFQAWITALGTASSAGTLPVTFRCLEDNLGIDKRVTRFVLPVGATINMDGTALYEAVAAIFIAQMNGVILDGGQIVTVSLTATLASIGAASIPSAGLVTMLLILTAVGLPTEDISLLVAVDWLLDRMRTSVNVVGDSFGAGIVYHLSKSELDTIDSQHRMHEDIEMTKTQSVYDDTKNHRESNSNQCVYAAHNSVVIDECKVTLAANGKSADCSVEEEPWKREK

What was measured:
[1] = target: Excitatory amino acid transporter 2 (Rattus norvegicus) (UniProt P31596); test: Attenuation of the sodium-dependent uptake of [3H]D-aspartate into synaptosomes prepared from rat forebrain at 250 uM.; type: subcellular; conditions: Brain
[2] = target: Excitatory amino acid transporter 2 (Rattus norvegicus) (UniProt P31596); test: Tested for the ability to attenuate the sodium-dependent uptake of [3H]D-aspartate (5 uM) into synaptosomes prepared from rat forebrain at 25 uM; type: subcellular; conditions: Brain
[3] = The compound was tested for binding affinity towards Excitatory amino acid receptors of rat brain synaptosomes; IE means ineffective; type: subcellular
Rattus norvegicus = organism: Rattus norvegicus; test: Tested for the competitive inhibitory activity against D-aspartate transport in rat synaptosomes; type: functional, Brain
[4] = compound: O=C(O)[C@@H]1CN[C@@H](C(=O)O)C1; test: Tested for the competitive inhibitory activity against L-glutamate transport in rat synaptosomes; type: subcellular; conditions: Brain

| Molecule | Control [1] | Control [2] | also measured |
| --- | --- | --- | --- |
| C=C(C)[C@H]1CN[C@H](C(=O)O)[C@H]1CC(=O)O | 39% |  |  |
| CCOCC1[C@H](C(=O)O)CN[C@H]1C(=O)O (stereo partly drawn) | 55% |  |  |
| N[C@@H](CCC(=O)O)C(=O)O |  | 40% |  |
| O=C(O)CC1[C@H](C(=O)O)CN[C@H]1C(=O)O (stereo partly drawn) | 95% |  |  |
| O=C(O)C[C@@H]1CN[C@H](C(=O)O)C1 | 74% |  |  |
| O=C(O)C[C@H]1CCN[C@@H]1C(=O)O | 74% |  |  |
| CC(C)[C@H]1CN[C@H](C(=O)O)[C@H]1CC(=O)O (single isomer, unassigned) | 25% | 83% |  |
| O=C(O)[C@@H]1CN[C@@H](C(=O)O)C1 (stereo in doubt; form 1) [listing 1 of 2 here] |  |  | Ki [3]: Ineffective; Ki (Rattus norvegicus): 1300 nM |
| O=C(O)[C@@H]1CCN[C@H]1C(=O)O (stereo in doubt; form 1) | 81% |  |  |
| O=C(O)[C@@H]1CN[C@@H](C(=O)O)C1 (stereo in doubt; form 1) [listing 2 of 2 here] | 0% | 18% |  |
| O=C(O)[C@@H]1CN[C@H](C(=O)O)C1 (stereo in doubt; form 1) | 105% |  |  |
| O=C(O)[C@@H]1CN[C@H]1C(=O)O (stereo in doubt; form 1) | 109% |  |  |
| O=C(O)[C@H]1NCC[C@H]1C(=O)O (stereo in doubt; form 1) | 38% | 94% |  |
| O=C(O)[C@H]1NC[C@H]1C(=O)O (stereo in doubt; form 1) | 53% | 96% |  |
| O=C(O)[C@@H]1CCN[C@H]1C(=O)O (stereo in doubt; form 2) | 107% |  |  |
| O=C(O)[C@@H]1CN[C@@H](C(=O)O)C1 (stereo in doubt; form 2) | 54% | 88% |  |
| O=C(O)[C@@H]1CN[C@H](C(=O)O)C1 (stereo in doubt; form 2) | 36% | 82% |  |
| O=C(O)[C@@H]1CN[C@H]1C(=O)O (stereo in doubt; form 2) | 100% |  |  |
| O=C(O)[C@H]1NCC[C@H]1C(=O)O (stereo in doubt; form 2) | 108% |  |  |
| O=C(O)[C@H]1NC[C@H]1C(=O)O (stereo in doubt; form 2) | 98% |  |  |
| B1 |  |  | Km [4]: 3 µM |
